What was measured:
HT29 transplanted tumor = assay: Transplanted tumor of HT29 colon cancer cells in nude mice; type: in vivo; settings: 2 mg/kg in combination with 5-fluorouracil at half dose (20 mg/kg), once a day; effect comparable to 5-fluorouracil alone 40 mg/kg
Procedure: The HT29 cells were thawed, and cultured in a changed medium after 24 hours. Medium preparation method: 6% serum, 1% of a bispecific antibody+a 1640 basal medium. After grown to confluent, the cells were digested and subcultured to expand the number of cells. When reached the required amount, the cells were digested by trypsin, centrifuged, and resuspended in PBS to prepare a cell suspension of 1×10^8 cells/ml. A part of the cell suspension was added with the monotropein, desacetyl asperulosidic acid, asperuloside, and asperulosidic acid respectively, and the inhibition rate (%) of tumor cell proliferation by each of these different compounds was examined.
Male adult nude mice, which had the body weights of 20-24 g, were purchased from Guangdong Medical Laboratory Animal Center. After 7 days of adaptive feeding of the animals, except for the blank group, the remaining animals were injected with 0.2 ml of a cell suspension in PBS at ventrodorsal and scapula sites of them, the response conditions of the animals were observed, and the body weights of the animals were determined once a week. After 2 weeks of observation, the animals were grouped into the following groups according to tumor size: a blank group; a model group; a 5-fluorouracil control group (5-Full, 40 mg/kg); monotropein+5-fluorouracil (2 mg/kg monotropein+20 mg/kg 5-fluorouracil), desacetyl asperulosidic acid+5-fluorouracil (2 mg/kg desacetyl asperulosidic acid+20 mg/kg 5-fluorouracil), asperuloside+5-fluorouracil (2 mg/kg asperuloside+20 mg/kg 5-fluorouracil), asperulosidic acid+5-fluorouracil (2 mg/kg asperulosidic acid+20 mg/kg 5-fluorouracil), these groups being labeled as: Mo, As, Aa, Da. Each group included 8 animals; and administration was conducted once a day.
The status, death conditions, and eating and drinking conditions of the animals were observed daily. The body weights of the animals were determined once a week and the tumor size of the animals was determined every 4 days. The tumor volume of the animals was determined by using a vernier caliper. After 1 month of administration, the animals were sacrificed after blood was sampled from the orbit thereof, and the tumor was separated and weighed.

intestinal permeability = assay: Determination of intestinal permeability in serum with FITC-dextran; type: in vivo, Balb/c mice; settings: after third stage of modeling; monotropein high and low doses, 5-ASA 100 mg/kg
Procedure: Experimental method: 90 Balb/c mice of 6-8 weeks were purchased from the Experimental Animal Center in Guangzhou University of Chinese Medicine, weighed about 18-22 g, and subjected to adaptive feeding for 10 days. Modeling was divided into three stages. In the first stage, except for the normal group of animals being given saline injection, each of the other animals were intraperitoneally injected with a carcinogen AOM (10 mg/kg), and given free access to 2% DSS water from the next day for 7 days, and then given access to replaced regular drinking water for 14 days. In the second stage, the animals were given free access to 2% DSS water for 10 days, and then given access to replaced regular drinking water for 14 days. In the third stage, the animals were given free access to 2% DSS water for 10 days, and then given access to replaced regular drinking water for 11 days. […] The diet, water drinking and body weights of the animals were recorded daily and DAI scores were made, and the animals were killed and harvested at the 10th week. […] 25 μl of serum was taken and added with 100 μl PBS, and determined on a microplate reader for its fluorescence intensity, where the wavelength of the exciting light was 480 nm, and the wavelength of the emitting light was 520 nm. A standard curve was made and the sample concentration was calculated.

vitamin D receptor = assay: Expression of vitamin D receptor in colon tissues, Experiment 2 (Western blot, immunohistochemistry); type: in vivo, Balb/c mice; settings: compared with the blank group; VD3 0.2 mg/kg, four compounds 2 mg/kg
Procedure: Experimental method: 70 Balb/c mice of 6-8 weeks were purchased from the Experimental Animal Center in Guangzhou University of Chinese Medicine, weighed about 18-22 g, and subjected to adaptive feeding for 10 days. Modeling was divided into three stages. In the first stage, except for the normal group of animals being given saline injection, each of the other animals were intraperitoneally injected with a carcinogen AOM (10 mg/kg), and given free access to 2% DSS water from the next day for 7 days, and then given access to replaced regular drinking water for 14 days. In the second stage, the animals were given free access to 2% DSS water for 10 days, and then given access to replaced regular drinking water for 14 days. In the third stage, the animals were given free access to 2% DSS water for 10 days, and then given access to replaced regular drinking water for 11 days. The normal group was given access to regular drinking water throughout the experiment. The diet, water drinking and body weights of the animals were recorded daily and DAI scores were made, and the animals were killed and harvested at the 10th week. In this experiment, the animals were divided into groups and administrated on the first day of a modeling period of the second stage, where a total of 7 groups were set, each group including 10 animals. The first group was a blank control group (control) that was given access to drinking water by gavage; the second group was a model group (model), in which a total of 10 animals were given access to drinking water by gavage; the third group was a vitamin D3 positive administration control group (VD3, 0.2 mg/kg); and the fourth to seventh groups were given monotropein, desacetyl asperulosidic acid, asperuloside, and asperulosidic acid (groups labeled as: Mo, As, Aa, Da), respectively at a given dose of 2 mg/kg. Dosing was conducted once a day until the end of the experiment. At the end of the experiment, the animals were anesthetized and harvested, and the colon tissue was taken, measured with a ruler for the length, and measured with a vernier caliper for the thickness. The effects of monotropein, desacetyl asperulosidic acid, asperuloside and asperulosidic acid on expression of the vitamin D receptor were detected.

O=C(O)C1=CO[C@@H](O[C@@H]2O[C@H](CO)[C@@H](O)[C@H](O)[C@H]2O)[C@H]2[C@@H]1C=C[C@]2(O)CO [monotropein]
tumor proliferation in HT29 tumor-bearing mice (HT29 transplanted tumor): significantly inhibit tumor proliferation | intestinal permeability (FITC-dextran in serum) vs model group (intestinal permeability): significant differences | expression of the vitamin D receptor in the colon tissues (Western blot and immunohistochemistry) (vitamin D receptor): promote expression enhancement
